Source: patent US10556889B1, “Salvinorin derivatives” (Blue Sky Pharmaceuticals, LLC, priority 2018, dated 2020)
Like-named read-outs stand apart in the source and are kept apart here.

What was measured:
uOR [1] = biological target: T1, uOR (Mus musculus, UniProt P42866); assay: β-arrestin recruitment to uOR / receptor internalization; type: cell-based; parameters: expressed in transfected cells
From the text: The data provided in Tables 1A and 1B below were obtained using standard analytical techniques known to those skilled in the art. Such techniques are described in detail in C.
[…] were transiently transfected (electroporation) with combinations of cDNA for hemagglutinin (HA-N terminus)-tagged uOR, beta-arrestin2 tagged with green fluorescent protein, mouse uOR tagged at the C terminus with yellow fluorescent protein and GRK-2. […] After addition of drug, cells were visualized using confocal microscopy. Multiple cells were recorded per dish after more than four separate transfection experiments—representative cells are shown in the manuscript.
The “β-arrestin Recruitment EC50±SEM” column in Table 2 below represents the degree to which each tested compound recruited beta-arrestin to interact with uOR. As will be appreciated by those skilled in the art, EC50 refers to the concentration of a drug which induces a response halfway between the baseline and maximum after a specified exposure time. In this instance, lower values indicate greater potency of the molecule, and this is […].
As will also be understood by those skilled in the art, “Max Fold Efficacy” refers to the maximum signal/background ratio that an agonist will induce or, conversely, that an antagonist will inhibit an agonist from inducing a response. In Table 2 below, the “Max Fold Efficacy” column indicates the strength of the signal increase over the control/background measurement for uOR receptor internalization at the E.C. 50.

uOR [2] = biological target: T1, uOR; assay: Agonist induced ERK 1/2 phosphorylation (efficacy and potency relative to DAMGO)
[3] = maximum signal/background ratio for uOR receptor internalization at the EC50
[4] = recruitment of beta-arrestin to interact with uOR, bound given in μM, read-out: β-arrestin Recruitment EC50 ± SEM

T1 sequence (P42866 whole entry): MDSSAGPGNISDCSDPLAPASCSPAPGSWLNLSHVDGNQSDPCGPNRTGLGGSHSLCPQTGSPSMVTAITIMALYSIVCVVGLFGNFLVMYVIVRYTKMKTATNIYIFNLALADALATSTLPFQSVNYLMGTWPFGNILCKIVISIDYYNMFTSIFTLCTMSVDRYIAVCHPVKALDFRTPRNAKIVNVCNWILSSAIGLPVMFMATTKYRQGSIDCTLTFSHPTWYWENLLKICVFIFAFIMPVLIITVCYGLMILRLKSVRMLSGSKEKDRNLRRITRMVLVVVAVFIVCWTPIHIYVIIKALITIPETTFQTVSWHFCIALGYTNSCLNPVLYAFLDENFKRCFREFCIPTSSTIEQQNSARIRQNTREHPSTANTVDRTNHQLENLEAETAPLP

Compound | EC50 (uOR [1]) [µM] | Max Fold Efficacy (uOR [1]; [3]) | EC50 (uOR [2]) [nM] | EC50 (uOR [1]; [4]) [µM] | Max Fold Efficacy (uOR [1])
COC(=O)[C@@H]1C[C@H](NC(=O)c2ccccc2)C(=O)[C@H]2[C@@]1(C)CC[C@H]1C(=O)O[C@H](c3ccoc3)C[C@]21C | 9.19 ± 2.75 | 21.73 | 0.232 |  | 
COC(=O)[C@@H]1C[C@H](OC(=O)c2ccc(C(F)(F)F)cc2)C(=O)[C@H]2[C@@]1(C)CC[C@H]1C(=O)O[C@H](c3ccoc3)C[C@]21C |  |  | 930 | > 10 | 
COC(=O)[C@@H]1C[C@H](OC(=O)c2ccccc2)C(=O)[C@H]2[C@@]1(C)CC[C@H]1C(=O)O[C@H](c3ccoc3)C[C@]21C |  | 2.4 | 1110 | > 10 | 
COC(=O)[C@@H]1C[C@H](OC(=O)Nc2ccccc2)C(=O)[C@H]2[C@@]1(C)CC[C@H]1C(=O)O[C@H](c3ccoc3)C[C@]21C |  |  | 1200 | > 10 | 
COC(=O)[C@@H]1C[C@H](OC(=O)c2ccc(F)cc2)C(=O)[C@H]2[C@@]1(C)CC[C@H]1C(=O)O[C@H](c3ccoc3)C[C@]21C |  | 2.2 | 1640 | > 10 | 
COC(=O)[C@@H]1C[C@H](OC(=O)Nc2ccc(Cl)c(Cl)c2)C(=O)[C@H]2[C@@]1(C)CC[C@H]1C(=O)O[C@H](c3ccoc3)C[C@]21C |  |  | 1850 | > 10 | 
COC(=O)[C@@H]1C[C@H](OC(=O)Nc2ccc(SC(F)(F)F)cc2)C(=O)[C@H]2[C@@]1(C)CC[C@H]1C(=O)O[C@H](c3ccoc3)C[C@]21C |  |  | 2300 | > 10 | 
COC(=O)[C@@H]1C[C@H](OC(=O)c2ccc(OC)cc2)C(=O)[C@H]2[C@@]1(C)CC[C@H]1C(=O)O[C@H](c3ccoc3)C[C@]21C |  | 3.1 | 3500 | > 10 | 
COC(=O)[C@@H]1C[C@H](NC(=O)Nc2ccc(C#N)cc2)C(=O)[C@H]2[C@@]1(C)CC[C@H]1C(=O)O[C@H](c3ccoc3)C[C@]21C |  |  | 4290 | > 10 | 
COC(=O)[C@@H]1C[C@H](NC(=O)NS(=O)(=O)c2ccc(Cl)cc2)C(=O)[C@H]2[C@@]1(C)CC[C@H]1C(=O)O[C@H](c3ccoc3)C[C@]21C |  |  | > 10000 | > 10 | 
CCc1ncc(C(=O)O[C@H]2C[C@@H](C(=O)OC)[C@]3(C)CC[C@H]4C(=O)O[C@H](c5ccoc5)C[C@]4(C)[C@H]3C2=O)cn1 |  | 5.1 | 917 | > 10 | 
COC(=O)[C@@H]1C[C@H](OC(=O)c2cnc(C)cn2)C(=O)[C@H]2[C@@]1(C)CC[C@H]1C(=O)O[C@H](c3ccoc3)C[C@]21C |  | 1.8 | 1280 | > 10 | 
COC(=O)[C@@H]1C[C@H](OC(=O)Nc2ncc(C)s2)C(=O)[C@H]2[C@@]1(C)CC[C@H]1C(=O)O[C@H](c3ccoc3)C[C@]21C |  |  | 1280 | > 10 | 
COC(=O)[C@@H]1C[C@H](OC(=O)c2cc(C)on2)C(=O)[C@H]2[C@@]1(C)CC[C@H]1C(=O)O[C@H](c3ccoc3)C[C@]21C |  | 1.3 | 1750 | > 10 | 
COC(=O)[C@@H]1C[C@H](OC(=O)c2ccon2)C(=O)[C@H]2[C@@]1(C)CC[C@H]1C(=O)O[C@H](c3ccoc3)C[C@]21C |  | 1 | 3780 | > 10 | 
COC(=O)[C@@H]1C[C@H](OC(=O)c2nc(C)co2)C(=O)[C@H]2[C@@]1(C)CC[C@H]1C(=O)O[C@H](c3ccoc3)C[C@]21C |  |  | 5990 | > 10 | 
CCc1ncc(NC(=O)O[C@H]2C[C@@H](C(=O)OC)[C@]3(C)CC[C@H]4C(=O)O[C@H](c5ccoc5)C[C@]4(C)[C@H]3C2=O)cn1 |  |  | 7460 | > 10 | 
COC(=O)[C@@H]1C[C@H](OC(=O)Nc2ccc(C#N)cc2)C(=O)[C@H]2[C@@]1(C)CC[C@H]1C(=O)O[C@H](c3ccoc3)C[C@]21C [Formula Ia-i] | 9.85 ± 0.153 | 9.5 | 35.5 |  | 

Compound | EC50 (uOR [1]) [µM] | Max Fold Efficacy (uOR [1]; [3]) | EC50 (uOR [2]) [nM] | EC50 (uOR [1]; [4]) [µM] | Max Fold Efficacy (uOR [1])
COC(=O)[C@@H]1C[C@H](OC(=O)Nc2ccc(C)cc2)C(=O)[C@H]2[C@@]1(C)CC[C@H]1C(=O)O[C@H](c3ccoc3)C[C@]21C [Formula Ia-ii] |  | 8.8 | 108 | > 10 | 
COC(=O)[C@@H]1C[C@H](OC(=O)Nc2ccc(Cl)cc2)C(=O)[C@H]2[C@@]1(C)CC[C@H]1C(=O)O[C@H](c3ccoc3)C[C@]21C [Formula Ia-iii] |  | 7.6 | 146 | > 10 | 
COC(=O)[C@@H]1C[C@H](OC(=O)Nc2ccc(F)cc2)C(=O)[C@H]2[C@@]1(C)CC[C@H]1C(=O)O[C@H](c3ccoc3)C[C@]21C [Formula Ia-iv] |  | 4.3 | 156 | > 10 | 
COC(=O)[C@@H]1C[C@H](OC(=O)Nc2ccc(OC(F)F)cc2)C(=O)[C@H]2[C@@]1(C)CC[C@H]1C(=O)O[C@H](c3ccoc3)C[C@]21C [Formula Ia-v] |  | 9.5 | 162 | > 10 | 
COC(=O)[C@@H]1C[C@H](OC(=O)Nc2ccc(C(F)(F)F)cc2)C(=O)[C@H]2[C@@]1(C)CC[C@H]1C(=O)O[C@H](c3ccoc3)C[C@]21C [Formula Ia-vi] |  | 5.1 | 327 | > 10 | 
COC(=O)[C@@H]1C[C@H](OC(=O)Nc2ccc(F)c(F)c2)C(=O)[C@H]2[C@@]1(C)CC[C@H]1C(=O)O[C@H](c3ccoc3)C[C@]21C [Formula Ia-vii] |  | 2.2 | 412 | > 10 | 
COC(=O)[C@@H]1C[C@H](OC(=O)Nc2ccc(Cl)cc2F)C(=O)[C@H]2[C@@]1(C)CC[C@H]1C(=O)O[C@H](c3ccoc3)C[C@]21C [Formula Ia-viii] |  | 2.3 | 522 | > 10 | 
COC(=O)[C@@H]1C[C@H](NC(=O)NC(=O)c2ccccc2)C(=O)[C@H]2[C@@]1(C)CC[C@H]1C(=O)O[C@H](c3ccoc3)C[C@]21C [Formula Ib-i] |  | 3.14 | 610 | > 10 | 
COC(=O)[C@@H]1C[C@H](OC(=O)NC(=O)c2ccccc2)C(=O)[C@H]2[C@@]1(C)CC[C@H]1C(=O)O[C@H](c3ccoc3)C[C@]21C [Formula Ib-ii] |  | 4.8 | 633 | > 10 | 
COC(=O)[C@@H]1C[C@H](OC(=O)Nc2csc(C)n2)C(=O)[C@H]2[C@@]1(C)CC[C@H]1C(=O)O[C@H](c3ccoc3)C[C@]21C [Formula Ic-i] | 2.07 ± 0.649 | 31.3 | 0.854 |  | 
COC(=O)[C@@H]1C[C@H](OC(=O)Nc2nc(C)cs2)C(=O)[C@H]2[C@@]1(C)CC[C@H]1C(=O)O[C@H](c3ccoc3)C[C@]21C [Formula Ic-ii] |  | 3.8 | 25.2 | > 10 | 
COC(=O)[C@@H]1C[C@H](OC(=O)Nc2cnc(C)cn2)C(=O)[C@H]2[C@@]1(C)CC[C@H]1C(=O)O[C@H](c3ccoc3)C[C@]21C [Formula Ic-iii] |  | 9.5 | 35.7 | > 10 | 
COC(=O)[C@@H]1C[C@H](OC(=O)Nc2cnc(C)nc2)C(=O)[C@H]2[C@@]1(C)CC[C@H]1C(=O)O[C@H](c3ccoc3)C[C@]21C [Formula Ic-iv] |  | 2.8 | 79.1 | > 10 | 
COC(=O)[C@@H]1C[C@H](OC(=O)Nc2cc(C)on2)C(=O)[C@H]2[C@@]1(C)CC[C@H]1C(=O)O[C@H](c3ccoc3)C[C@]21C [Formula Ic-v] |  | 2.4 | 118 | > 10 | 
COC(=O)[C@@H]1C[C@H](OC(=O)c2cnc(C)nc2)C(=O)[C@H]2[C@@]1(C)CC[C@H]1C(=O)O[C@H](c3ccoc3)C[C@]21C [Formula Id-i] |  | 4.2 | 2.85 | > 10 | 
COC(=O)[C@@H]1C[C@H](OC(=O)c2ccc(Cl)nc2)C(=O)[C@H]2[C@@]1(C)CC[C@H]1C(=O)O[C@H](c3ccoc3)C[C@]21C [Formula Id-ii] |  | 9.3 | 373 | > 10 | 
COC(=O)[C@@H]1C[C@H](OC(=O)c2cc(C)cs2)C(=O)[C@H]2[C@@]1(C)CC[C@H]1C(=O)O[C@H](c3ccoc3)C[C@]21C [Formula Id-iii] |  | 6.1 | 377 | > 10 | 
Met-Enkephalin [reference compound] |  |  |  |  | 38.3
